Laboratory results: patent US20120122860A1, “SOLID FORMS OF SULFONAMIDES AND AMINO ACIDS” (Plexxikon, Inc., priority 2009, published 2012)

What was measured:
[1] = target: MAP4K4 (Homo sapiens, UniProt O95819); assay: Kinase activity assay, MAP4K4
[2] = target: T1, TEC (Homo sapiens, UniProt P42680); assay: Kinase activity assay, TEC
T1 sequence (P42680 1-631): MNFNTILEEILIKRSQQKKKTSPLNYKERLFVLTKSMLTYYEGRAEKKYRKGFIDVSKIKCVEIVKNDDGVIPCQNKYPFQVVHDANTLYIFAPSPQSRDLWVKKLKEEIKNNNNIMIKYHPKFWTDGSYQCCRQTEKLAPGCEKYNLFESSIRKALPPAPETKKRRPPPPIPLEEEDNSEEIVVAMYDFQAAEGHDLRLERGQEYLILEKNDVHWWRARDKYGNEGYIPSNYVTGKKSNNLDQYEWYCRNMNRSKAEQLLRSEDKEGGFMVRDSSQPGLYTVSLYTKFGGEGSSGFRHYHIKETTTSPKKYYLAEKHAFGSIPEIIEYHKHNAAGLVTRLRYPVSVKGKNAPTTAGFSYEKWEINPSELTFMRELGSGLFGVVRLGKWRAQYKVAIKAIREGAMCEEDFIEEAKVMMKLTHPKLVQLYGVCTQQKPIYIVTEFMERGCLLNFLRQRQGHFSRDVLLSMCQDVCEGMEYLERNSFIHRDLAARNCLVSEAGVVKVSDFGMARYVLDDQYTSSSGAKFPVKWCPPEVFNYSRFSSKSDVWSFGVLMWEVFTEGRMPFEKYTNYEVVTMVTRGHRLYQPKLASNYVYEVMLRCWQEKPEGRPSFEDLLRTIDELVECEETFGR

[3] = target: B-Raf (Homo sapiens, UniProt P15056); assay: Kinase activity assay, B-Raf; type: biochemical; settings: read-out: activity toward kinase B-Raf, IC50
Sequence of B-Raf (P15056 whole entry): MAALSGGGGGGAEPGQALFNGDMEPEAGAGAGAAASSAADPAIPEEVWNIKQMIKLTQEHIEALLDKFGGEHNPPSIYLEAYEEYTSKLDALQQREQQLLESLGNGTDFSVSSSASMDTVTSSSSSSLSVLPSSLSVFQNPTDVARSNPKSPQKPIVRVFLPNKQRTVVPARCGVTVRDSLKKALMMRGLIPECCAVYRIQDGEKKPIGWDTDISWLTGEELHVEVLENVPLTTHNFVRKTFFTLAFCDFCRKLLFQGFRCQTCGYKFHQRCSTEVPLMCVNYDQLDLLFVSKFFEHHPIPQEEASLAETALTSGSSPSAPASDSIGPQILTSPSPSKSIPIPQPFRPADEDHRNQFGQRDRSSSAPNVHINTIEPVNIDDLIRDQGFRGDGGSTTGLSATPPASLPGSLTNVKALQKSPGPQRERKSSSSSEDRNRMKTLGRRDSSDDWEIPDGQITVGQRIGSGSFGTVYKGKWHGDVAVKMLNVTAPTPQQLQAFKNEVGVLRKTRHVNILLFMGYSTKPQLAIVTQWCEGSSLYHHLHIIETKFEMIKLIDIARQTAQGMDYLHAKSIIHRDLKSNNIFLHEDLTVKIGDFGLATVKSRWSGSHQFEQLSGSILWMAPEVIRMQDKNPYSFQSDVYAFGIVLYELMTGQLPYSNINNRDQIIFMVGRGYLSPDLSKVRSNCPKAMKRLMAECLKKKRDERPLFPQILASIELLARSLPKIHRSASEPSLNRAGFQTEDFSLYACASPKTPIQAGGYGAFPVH

[4] = target: Src (Homo sapiens, UniProt P12931); assay: Kinase activity assay, Src
[5] = target: B-Raf V600E (Homo sapiens, UniProt P15056, V600E); assay: Kinase activity assay, B-Raf V600E; type: biochemical; settings: read-out: activity toward kinase B-Raf V600E, IC50
Sequence of B-Raf V600E (P15056 whole entry V600E): as the sequence (P15056 whole entry) above, with V600E counted along it

[6] = target: Kdr (Homo sapiens, UniProt P35968); assay: Kinase activity assay, Kdr
Sequence of Kdr (P35968 20-1356): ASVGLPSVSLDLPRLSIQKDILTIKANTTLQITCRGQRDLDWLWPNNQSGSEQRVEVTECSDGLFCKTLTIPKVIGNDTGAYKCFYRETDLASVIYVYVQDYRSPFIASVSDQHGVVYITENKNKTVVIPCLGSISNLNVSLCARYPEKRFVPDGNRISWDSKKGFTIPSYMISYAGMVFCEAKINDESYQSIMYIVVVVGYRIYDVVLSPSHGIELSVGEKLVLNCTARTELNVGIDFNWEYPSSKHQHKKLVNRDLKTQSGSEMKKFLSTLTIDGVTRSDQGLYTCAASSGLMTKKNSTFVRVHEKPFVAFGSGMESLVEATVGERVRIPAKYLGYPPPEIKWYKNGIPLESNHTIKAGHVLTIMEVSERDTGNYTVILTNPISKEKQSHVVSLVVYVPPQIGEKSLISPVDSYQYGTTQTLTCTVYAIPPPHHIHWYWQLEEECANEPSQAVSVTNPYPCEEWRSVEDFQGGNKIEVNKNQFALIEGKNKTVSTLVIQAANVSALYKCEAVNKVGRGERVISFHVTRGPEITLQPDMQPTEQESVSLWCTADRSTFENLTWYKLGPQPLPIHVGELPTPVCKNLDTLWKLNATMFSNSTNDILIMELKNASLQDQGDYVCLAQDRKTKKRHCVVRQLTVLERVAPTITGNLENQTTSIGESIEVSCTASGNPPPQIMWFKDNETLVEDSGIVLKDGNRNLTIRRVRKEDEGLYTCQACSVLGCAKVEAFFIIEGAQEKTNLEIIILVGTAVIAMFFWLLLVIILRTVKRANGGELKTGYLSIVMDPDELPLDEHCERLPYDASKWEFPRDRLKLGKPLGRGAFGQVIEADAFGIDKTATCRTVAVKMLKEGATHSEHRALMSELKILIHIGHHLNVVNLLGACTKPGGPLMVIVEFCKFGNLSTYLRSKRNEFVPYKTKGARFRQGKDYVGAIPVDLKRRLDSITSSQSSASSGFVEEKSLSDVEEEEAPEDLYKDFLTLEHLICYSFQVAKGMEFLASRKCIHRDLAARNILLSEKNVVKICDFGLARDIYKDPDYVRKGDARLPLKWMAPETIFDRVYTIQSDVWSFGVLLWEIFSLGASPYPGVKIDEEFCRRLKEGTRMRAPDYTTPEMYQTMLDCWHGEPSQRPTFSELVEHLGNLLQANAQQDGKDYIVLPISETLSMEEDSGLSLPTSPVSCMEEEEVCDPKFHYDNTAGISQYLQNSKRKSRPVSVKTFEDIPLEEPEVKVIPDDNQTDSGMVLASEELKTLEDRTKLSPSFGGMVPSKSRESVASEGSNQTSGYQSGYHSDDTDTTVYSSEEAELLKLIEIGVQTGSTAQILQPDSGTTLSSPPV

[7] = target: Fms (Homo sapiens, UniProt P07333); assay: Kinase activity assay, Fms
Sequence of Fms (P07333 20-972): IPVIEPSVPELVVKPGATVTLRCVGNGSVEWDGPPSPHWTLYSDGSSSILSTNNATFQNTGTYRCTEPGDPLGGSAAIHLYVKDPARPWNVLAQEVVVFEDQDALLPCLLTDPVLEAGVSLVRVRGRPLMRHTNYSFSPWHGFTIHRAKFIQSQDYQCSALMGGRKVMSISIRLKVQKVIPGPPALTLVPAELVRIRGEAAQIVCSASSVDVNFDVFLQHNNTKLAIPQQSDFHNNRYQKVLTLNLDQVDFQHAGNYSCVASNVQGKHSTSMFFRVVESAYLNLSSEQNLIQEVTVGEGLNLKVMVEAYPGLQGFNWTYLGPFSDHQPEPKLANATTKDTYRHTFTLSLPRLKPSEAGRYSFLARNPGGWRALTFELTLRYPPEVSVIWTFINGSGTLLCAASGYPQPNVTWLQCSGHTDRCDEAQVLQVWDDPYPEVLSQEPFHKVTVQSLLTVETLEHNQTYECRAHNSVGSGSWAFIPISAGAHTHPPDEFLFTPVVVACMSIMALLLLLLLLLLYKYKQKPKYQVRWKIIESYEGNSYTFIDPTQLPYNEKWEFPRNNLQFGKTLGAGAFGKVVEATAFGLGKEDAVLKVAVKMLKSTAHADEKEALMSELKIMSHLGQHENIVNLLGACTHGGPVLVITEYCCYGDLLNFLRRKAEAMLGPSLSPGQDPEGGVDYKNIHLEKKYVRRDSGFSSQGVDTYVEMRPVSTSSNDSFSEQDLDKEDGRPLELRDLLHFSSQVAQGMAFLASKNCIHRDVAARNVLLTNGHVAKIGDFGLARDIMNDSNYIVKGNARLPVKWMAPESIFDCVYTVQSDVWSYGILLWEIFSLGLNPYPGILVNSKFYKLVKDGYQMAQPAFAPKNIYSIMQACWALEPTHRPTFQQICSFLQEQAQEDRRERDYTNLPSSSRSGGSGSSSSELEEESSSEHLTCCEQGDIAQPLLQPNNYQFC

[8] = target: Kit (Homo sapiens, UniProt P10721); assay: Kinase activity assay, Kit
[9] = target: C-Raf (Homo sapiens, UniProt P04049); assay: Kinase activity assay, C-Raf
Sequence of C-Raf (P04049 whole entry): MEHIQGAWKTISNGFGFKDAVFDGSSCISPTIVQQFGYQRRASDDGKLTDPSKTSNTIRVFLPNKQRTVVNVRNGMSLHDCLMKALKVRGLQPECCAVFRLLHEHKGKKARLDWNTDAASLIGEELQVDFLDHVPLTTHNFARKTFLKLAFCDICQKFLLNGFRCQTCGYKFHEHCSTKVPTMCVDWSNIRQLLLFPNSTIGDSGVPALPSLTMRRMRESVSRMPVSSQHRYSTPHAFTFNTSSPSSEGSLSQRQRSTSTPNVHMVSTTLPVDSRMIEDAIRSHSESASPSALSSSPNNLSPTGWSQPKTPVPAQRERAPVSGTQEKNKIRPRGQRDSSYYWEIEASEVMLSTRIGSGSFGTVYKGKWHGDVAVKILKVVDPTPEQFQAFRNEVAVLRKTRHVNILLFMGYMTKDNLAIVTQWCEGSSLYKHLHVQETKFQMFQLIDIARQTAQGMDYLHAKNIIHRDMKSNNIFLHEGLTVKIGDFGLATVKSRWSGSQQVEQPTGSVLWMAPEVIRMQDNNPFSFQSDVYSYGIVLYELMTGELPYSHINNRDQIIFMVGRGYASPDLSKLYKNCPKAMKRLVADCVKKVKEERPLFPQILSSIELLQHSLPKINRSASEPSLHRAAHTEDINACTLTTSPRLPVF

[10] = target: T2, A-Raf (Homo sapiens, UniProt P10398); assay: Kinase activity assay, A-Raf
T2 sequence (P10398 1-606): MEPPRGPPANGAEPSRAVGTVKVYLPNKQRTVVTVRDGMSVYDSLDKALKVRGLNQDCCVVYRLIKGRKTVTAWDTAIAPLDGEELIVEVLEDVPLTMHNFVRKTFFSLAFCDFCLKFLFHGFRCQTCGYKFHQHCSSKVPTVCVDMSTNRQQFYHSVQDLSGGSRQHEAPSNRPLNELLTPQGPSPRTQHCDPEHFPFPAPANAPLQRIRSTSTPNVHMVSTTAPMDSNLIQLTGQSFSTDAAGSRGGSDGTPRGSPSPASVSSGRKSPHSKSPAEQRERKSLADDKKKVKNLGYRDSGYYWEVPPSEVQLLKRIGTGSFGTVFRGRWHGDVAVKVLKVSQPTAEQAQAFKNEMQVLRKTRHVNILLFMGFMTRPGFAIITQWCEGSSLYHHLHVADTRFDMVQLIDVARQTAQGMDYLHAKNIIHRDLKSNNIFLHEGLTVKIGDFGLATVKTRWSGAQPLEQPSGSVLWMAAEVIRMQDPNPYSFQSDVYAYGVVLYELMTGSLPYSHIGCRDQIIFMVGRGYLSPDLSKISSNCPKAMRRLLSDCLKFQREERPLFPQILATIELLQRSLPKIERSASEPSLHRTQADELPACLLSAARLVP

Sequence of MAP4K4 (O95819 whole entry): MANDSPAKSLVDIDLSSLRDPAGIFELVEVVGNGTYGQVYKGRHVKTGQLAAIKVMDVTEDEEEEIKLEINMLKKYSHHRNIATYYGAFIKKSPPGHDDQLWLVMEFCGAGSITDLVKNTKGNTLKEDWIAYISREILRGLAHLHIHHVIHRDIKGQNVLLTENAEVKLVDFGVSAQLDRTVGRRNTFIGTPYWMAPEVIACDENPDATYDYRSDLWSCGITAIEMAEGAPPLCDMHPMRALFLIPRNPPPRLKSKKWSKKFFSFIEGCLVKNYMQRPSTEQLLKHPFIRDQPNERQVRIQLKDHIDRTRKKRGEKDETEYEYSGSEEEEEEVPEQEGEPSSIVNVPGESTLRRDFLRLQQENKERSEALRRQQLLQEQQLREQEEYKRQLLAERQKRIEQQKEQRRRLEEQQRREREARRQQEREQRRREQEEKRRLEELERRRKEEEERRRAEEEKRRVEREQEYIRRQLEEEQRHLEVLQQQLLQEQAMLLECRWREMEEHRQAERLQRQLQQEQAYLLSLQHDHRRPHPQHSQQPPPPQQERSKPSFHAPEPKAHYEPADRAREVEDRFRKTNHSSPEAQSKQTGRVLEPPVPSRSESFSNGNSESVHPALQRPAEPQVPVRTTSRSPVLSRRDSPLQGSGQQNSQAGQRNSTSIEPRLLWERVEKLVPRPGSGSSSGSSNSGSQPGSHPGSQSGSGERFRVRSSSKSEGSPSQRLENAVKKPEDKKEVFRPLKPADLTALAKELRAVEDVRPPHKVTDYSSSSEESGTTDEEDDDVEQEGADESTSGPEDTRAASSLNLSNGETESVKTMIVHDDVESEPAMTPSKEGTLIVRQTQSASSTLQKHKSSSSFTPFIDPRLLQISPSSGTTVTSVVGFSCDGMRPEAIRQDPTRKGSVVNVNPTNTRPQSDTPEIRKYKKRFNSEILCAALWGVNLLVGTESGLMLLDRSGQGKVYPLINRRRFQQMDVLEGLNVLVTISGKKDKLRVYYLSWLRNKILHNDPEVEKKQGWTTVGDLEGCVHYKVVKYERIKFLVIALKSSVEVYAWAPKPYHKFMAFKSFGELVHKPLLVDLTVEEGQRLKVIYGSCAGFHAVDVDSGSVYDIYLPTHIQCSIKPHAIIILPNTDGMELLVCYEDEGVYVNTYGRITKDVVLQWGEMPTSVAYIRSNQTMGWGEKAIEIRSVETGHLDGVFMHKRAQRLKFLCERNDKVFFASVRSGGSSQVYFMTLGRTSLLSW

Row | IC50 [1] [µM] | IC50 [2] [µM] | IC50 [3] [µM] | IC50 [4] [µM] | IC50 [5] [µM] | IC50 [6] [µM] | IC50 [7] [µM] | IC50 [8] [µM] | IC50 [9] [µM] | IC50 [10] [µM] | Compound
1 | ≤ 10 | ≤ 10 | ≤ 10 | ≤ 10 | ≤ 10 | ≤ 10 |  | ≤ 10 | ≤ 10 |  | COc1ccnc2[nH]cc(C(=O)c3c(F)ccc(NS(=O)(=O)c4cccc(F)c4)c3F)c12 [P-2023, N-[2,4-Difluoro-3-(4-methoxy-1H-pyrrolo[2,3-b]pyridine-3-carbonyl)-phenyl]-3-fluoro-benzenesulfonamide]
2 | ≤ 10 | ≤ 10 | ≤ 10 | ≤ 10 | ≤ 10 | ≤ 10 |  | ≤ 10 | ≤ 10 |  | N#Cc1cnc2[nH]cc(C(=O)c3c(F)ccc(NS(=O)(=O)c4c(F)cccc4F)c3F)c2c1 [P-2029, N-[3-(5-Cyano-1H-pyrrolo[2,3-b]pyridine-3-carbonyl)-2,4-difluoro-phenyl]-2,6-difluoro-benzenesulfonamide]
3 | ≤ 10 | ≤ 10 | ≤ 10 | ≤ 10 | ≤ 10 | ≤ 10 |  | ≤ 10 | ≤ 10 |  | N#Cc1cnc2[nH]cc(C(=O)c3c(F)ccc(NS(=O)(=O)c4ccc(F)cc4F)c3F)c2c1 [P-2030, N-[3-(5-Cyano-1H-pyrrolo[2,3-b]pyridine-3-carbonyl)-2,4-difluoro-phenyl]-2,4-difluoro-benzenesulfonamide]
4 | ≤ 10 | ≤ 10 | ≤ 10 | ≤ 10 | ≤ 10 | ≤ 10 |  | ≤ 10 | ≤ 10 |  | COc1ccnc2[nH]cc(C(=O)c3c(F)ccc(NS(=O)(=O)c4c(F)cccc4F)c3F)c12 [P-2031, N-[2,4-Difluoro-3-(4-methoxy-1H-pyrrolo[2,3-b]pyridine-3-carbonyl)-phenyl]-2,6-difluoro-benzenesulfonamide]
5 |  | ≤ 10 | ≤ 10 |  | ≤ 10 |  |  |  | ≤ 10 | ≤ 10 | CCCS(=O)(=O)Nc1ccc(F)c(C(=O)c2c[nH]c3ncc(CN4CCN(C)CC4)cc23)c1F [P-2257, Propane-1-sulfonic acid {2,4-difluoro-3-[5-(4-methyl-piperazin-1-ylmethyl)-1H-pyrrolo[2,3-b]pyridine-3-carbonyl]-phenyl}-amide]
6 | ≤ 10 | ≤ 10 | ≤ 10 | ≤ 10 | ≤ 10 | ≤ 10 |  | ≤ 10 | ≤ 10 |  | COc1cnc2[nH]cc(C(=O)c3c(F)ccc(NS(=O)(=O)C4CCCCC4)c3F)c2c1 [P-2355, Cyclohexanesulfonic acid [2,4-difluoro-3-(5-methoxy-1H-pyrrolo[2,3-b]pyridine-3-carbonyl)-phenyl]-amide]
7 | ≤ 10 | ≤ 10 | ≤ 10 | ≤ 10 | ≤ 10 | ≤ 10 |  | ≤ 10 | ≤ 10 |  | COc1cnc2[nH]cc(C(=O)c3c(F)ccc(NS(=O)(=O)C4CCCC4)c3F)c2c1 [P-2356, Cyclopentanesulfonic acid [2,4-difluoro-3-(5-methoxy-1H-pyrrolo[2,3-b]pyridine-3-carbonyl)-phenyl]-amide]
8 | ≤ 10 | ≤ 10 |  |  |  | ≤ 10 | ≤ 10 | ≤ 10 |  |  | Cc1cnc2[nH]cc(C(=O)c3cc(NS(=O)(=O)C4CCCCC4)ccc3F)c2c1 [P-2443, Cyclohexanesulfonic acid [4-fluoro-3-(5-methyl-1H-pyrrolo[2,3-b]pyridine-3-carbonyl)-phenyl]-amide]
9 | ≤ 10 | ≤ 10 | ≤ 10 | ≤ 10 | ≤ 10 | ≤ 10 | ≤ 10 | ≤ 10 | ≤ 10 |  | CS(=O)(=O)c1cccc(-c2cnc3[nH]cc(C(=O)c4cc(NS(=O)(=O)C5CCCC5)ccc4F)c3c2)c1 [P-2445, Cyclopentanesulfonic acid {4-fluoro-3-[5-(3-methanesulfonyl-phenyl)-1H-pyrrolo[2,3-b]pyridine-3-carbonyl]-phenyl}-amide]

Further lines, the compound ahead of its results:

Row | Compound | IC50 [1] [µM] | IC50 [2] [µM] | IC50 [3] [µM] | IC50 [4] [µM] | IC50 [5] [µM] | IC50 [6] [µM] | IC50 [7] [µM] | IC50 [8] [µM] | IC50 [9] [µM] | IC50 [10] [µM]
10 | O=C(c1c(F)ccc(NS(=O)(=O)c2c(F)cccc2F)c1F)c1c[nH]c2ncc(Cl)cc12 [P-2003, N-[3-(5-Chloro-1H-pyrrolo[2,3-b]pyridine-3-carbonyl)-2,4-difluoro-phenyl]-2,6-difluoro-benzenesulfonamide] | ≤ 10 | ≤ 10 | ≤ 10 | ≤ 10 | ≤ 10 | ≤ 10 | ≤ 10 | ≤ 10 | ≤ 10 | 
11 | Cc1cnc2[nH]cc(C(=O)c3c(F)ccc(NS(=O)(=O)c4c(F)cccc4F)c3F)c2c1 [P-2024, N-[2,4-Difluoro-3-(5-methyl-1H-pyrrolo[2,3-b]pyridine-3-carbonyl)-phenyl]-2,6-difluoro-benzenesulfonamide] | ≤ 10 | ≤ 10 | ≤ 10 | ≤ 10 | ≤ 10 | ≤ 10 |  | ≤ 10 | ≤ 10 | 
12 | CCCS(=O)(=O)Nc1ccc(F)c(C(=O)c2c[nH]c3ncc(CCCN4CCCC4)cc23)c1F [P-2248, Propane-1-sulfonic acid {2,4-difluoro-3-[5-(3-pyrrolidin-1-yl-propyl)-1H-pyrrolo[2,3-b]pyridine-3-carbonyl]-phenyl}-amide] |  | ≤ 10 | ≤ 10 |  | ≤ 10 | ≤ 10 |  |  | ≤ 10 | ≤ 10
13 | CCCS(=O)(=O)Nc1ccc(F)c(C(=O)c2c[nH]c3ncc(CO)cc23)c1F [P-2250, Propane-1-sulfonic acid [2,4-difluoro-3-(5-hydroxymethyl-1H-pyrrolo[2,3-b]pyridine-3-carbonyl)-phenyl]-amide] |  | ≤ 10 | ≤ 10 |  | ≤ 10 | ≤ 10 |  |  | ≤ 10 | ≤ 10
14 | CS(=O)(=O)Nc1ccc(F)c(C(=O)c2c[nH]c3nccc(C#N)c23)c1F [P-2292, N-[3-(4-Cyano-1H-pyrrolo[2,3-b]pyridine-3-carbonyl)-2,4-difluoro-phenyl]-methanesulfonamide] |  | ≤ 10 |  |  | ≤ 10 | ≤ 10 |  |  | ≤ 10 | ≤ 10
15 | CCC(C)S(=O)(=O)Nc1ccc(F)c(C(=O)c2c[nH]c3ncc(Cl)cc23)c1F (stereo not drawn) [P-2310, Butane-2-sulfonic acid [3-(5-chloro-1H-pyrrolo[2,3-b]pyridine-3-carbonyl)-2,4-difluoro-phenyl]-amide] | ≤ 10 | ≤ 10 | ≤ 10 | ≤ 10 | ≤ 10 | ≤ 10 |  | ≤ 10 | ≤ 10 | 
16 | O=C(c1c(F)ccc(NS(=O)(=O)C2CCCCC2)c1F)c1c[nH]c2ncc(Cl)cc12 [P-2357, Cyclohexanesulfonic acid [3-(5-chloro-1H-pyrrolo[2,3-b]pyridine-3-carbonyl)-2,4-difluoro-phenyl]-amide] | ≤ 10 | ≤ 10 | ≤ 10 | ≤ 10 | ≤ 10 | ≤ 10 |  | ≤ 10 | ≤ 10 | 
